Results: the NIST ThermoML archive (doi:10.1016/j.jct.2004.06.002)

Columns and labels:
[1] = Crystal
[2] = Molar enthalpy of transition or fusion; conditions: Crystal
[3] = molar heat capacity at constant pressure; conditions: 101.33 kPa

CCCCCCCCCCCC(=O)O.Cc1cc(C)nc(Nc2ccccc2)n1 [4,6-dimethyl-N-phenylpyrimidin-2-amine dodecanoate]
Conditions | Molar enthalpy of transition or fusion [kJ/mol] | Triple point temperature [K]
[1] | – | 321.52
[2] | 67.25 | –

[3]
Conditions | molar heat capacity at constant pressure [J/K/mol]
78.4 K, Crystal | 214.56
80.59 K, Crystal | 219.02
82.77 K, Crystal | 224.04
84.91 K, Crystal | 229.03
87.02 K, Crystal | 231.07
89.13 K, Crystal | 235.38
91.21 K, Crystal | 238.58
93.27 K, Crystal | 241.25
95.35 K, Crystal | 244.45
97.44 K, Crystal | 249.07
99.52 K, Crystal | 255.64
101.56 K, Crystal | 258.48
103.55 K, Crystal | 262.85
105.48 K, Crystal | 266.32
107.37 K, Crystal | 268.87
109.23 K, Crystal | 272.45
111.05 K, Crystal | 277.04
112.84 K, Crystal | 280.4
114.62 K, Crystal | 283.66
116.37 K, Crystal | 286.19
118.1 K, Crystal | 289.83
119.81 K, Crystal | 291.78
121.5 K, Crystal | 295.26
123.18 K, Crystal | 299.07
124.85 K, Crystal | 302.36
126.5 K, Crystal | 305.27
128.13 K, Crystal | 309.31
129.75 K, Crystal | 313.47
131.36 K, Crystal | 316.7
133.51 K, Crystal | 320.85
136.04 K, Crystal | 325.43
138.47 K, Crystal | 328.35
140.85 K, Crystal | 332.7
143.2 K, Crystal | 334.95
145.52 K, Crystal | 336.56
147.82 K, Crystal | 338.15
150.09 K, Crystal | 340.57
152.34 K, Crystal | 342.79
154.57 K, Crystal | 344.26
156.78 K, Crystal | 346.53
158.98 K, Crystal | 347.92
161.16 K, Crystal | 351.38
163.31 K, Crystal | 355.11
165.46 K, Crystal | 356.7
167.59 K, Crystal | 360.16
169.71 K, Crystal | 363.66
171.81 K, Crystal | 365.89
173.91 K, Crystal | 368.25
175.99 K, Crystal | 370.24
178.06 K, Crystal | 374.92
180.1 K, Crystal | 378.77
182.13 K, Crystal | 381.27
184.16 K, Crystal | 384.86
186.15 K, Crystal | 387.43
188.14 K, Crystal | 391.88
190.11 K, Crystal | 393.71
192.06 K, Crystal | 396.41
194.01 K, Crystal | 400.38
195.94 K, Crystal | 403.84
197.86 K, Crystal | 406.78
199.77 K, Crystal | 410.78
201.68 K, Crystal | 414.73
203.58 K, Crystal | 416.01
205.49 K, Crystal | 418.67
207.39 K, Crystal | 423.8
209.27 K, Crystal | 427.28
213.63 K, Crystal | 430.93
215.48 K, Crystal | 433.69
217.33 K, Crystal | 437.16
219.16 K, Crystal | 440.33
220.99 K, Crystal | 444.57
222.81 K, Crystal | 447.12
224.61 K, Crystal | 450.71
226.4 K, Crystal | 454.16
228.17 K, Crystal | 457.43
229.91 K, Crystal | 461.64
231.66 K, Crystal | 464.26
233.45 K, Crystal | 468.99
235.26 K, Crystal | 472.26
237.06 K, Crystal | 475.98
238.86 K, Crystal | 479.33
240.62 K, Crystal | 485.92
242.33 K, Crystal | 489.49
244.03 K, Crystal | 494.38
245.76 K, Crystal | 499.28
248.1 K, Crystal | 502
250.99 K, Crystal | 505.26
253.79 K, Crystal | 509.97
256.52 K, Crystal | 514.43
259.21 K, Crystal | 517.59
261.87 K, Crystal | 521.36
264.51 K, Crystal | 524.15
267.13 K, Crystal | 529.61
269.73 K, Crystal | 533.73
272.3 K, Crystal | 537.73
274.79 K, Crystal | 541.43
277.25 K, Crystal | 545.05
279.67 K, Crystal | 549.95
282.04 K, Crystal | 553.99
284.36 K, Crystal | 557.02
286.64 K, Crystal | 560.07
288.9 K, Crystal | 564.82
291.1 K, Crystal | 568.54
293.23 K, Crystal | 573.27
295.4 K, Crystal | 577.71
297.6 K, Crystal | 582.62
299.78 K, Crystal | 586.55
301.95 K, Crystal | 590.35
304.05 K, Crystal | 595.77
306.13 K, Crystal | 598.65
308.2 K, Crystal | 604.09
323.46 K, Liquid | 830.56
325.28 K, Liquid | 836.77
327.09 K, Liquid | 842.17
328.88 K, Liquid | 847.91
330.65 K, Liquid | 851.32
332.41 K, Liquid | 855.64
334.15 K, Liquid | 860.22
335.87 K, Liquid | 866.7
337.57 K, Liquid | 869.28
339.26 K, Liquid | 872.85
